From patent US11072588B2, “Barbituric acid derivatives comprising cationic and lipophilic groups” (UNIVERSITETET I TROMSØ—NORGES ARKTISKE UNIVERSITET, priority 2017, dated 2021)
Values after ≈ are worked out from the molar mass of the structure shown.

How the values were obtained:
[1] = test system: S. epidermidis; test: Anti-biofilm activity (inhibition of biofilm formation); assay type: cell-based; conditions: Staphylococcus epidermidis, read-out: Anti-biofilm IC50
[2] = test system: E. coli 50579417; test: MIC, multi-resistant clinical isolate; assay type: cell-based, Escherichia coli
Procedure: (§1) Working solutions of the test derivatives were prepared with up to 100% DMSO and stored at −20° C. If necessary, the solutions were heated to 40-80° C. before testing to facilitate complete dissolution. Double-distilled water was used in all dilutions prepared. […] A microdilution susceptibility test was used for MIC determination according to Clinical and Laboratory Standards Institute, “Methods for Dilution Antimicrobial Sisceptibility Tests for Bacteria That Graw Aerobically”, Approved Standard M07-A9, edition 2012, with modifications as described by Igumnova et al (Bioorg Med Chem, 2016, 24 (22), 5884-5894).
(§2) Briefly, the bacterial inoculum was adjusted to approximately 2.5-3×10^4 cells/mL in Mueller-Hinton broth (MHB, Difco Laboratories, USA), and incubated in a ratio of 1:1 with test derivatives in polystyrene 96-well flat-bottom microplates (NUNC, Roskilde, Denmark). Positive growth control (without test derivatives) and negative control (without bacteria) were included. The reference antibiotic was oxytetracycline hydrochloride (Sigma Aldrich, Saint Louis, Mo., USA). The microplates were incubated in an EnVision microplate reader (Perkin-Elmer, Turku, Finland) placed in an incubator set to 35° C. for 48 h. The MIC value was defined as the lowest concentration of derivative resulting in no bacterial growth as determined by OD600 measurement. All derivatives were tested in three parallels.
(§3) The MIC was determined as explained above with some exceptions; working solutions of test derivatives were prepared from concentrated DMSO stocks stored at room temperature, the density of the bacterial inoculum was increased 40× to 1-1.2×10^6 cells/mL, enterococci were incubated in Brain Heart Infusion broth (BHIB, Difco Laboratories, USA), the microplates were incubated for 24 h, and the derivatives were tested in four parallels.

[3] = test system: E. coli 50676002; test: MIC, multi-resistant clinical isolate; assay type: cell-based, Escherichia coli; conditions: E. coli 50676002
Procedure: as §1, §2, §3

[4] = test system: E. coli 50857972; test: MIC, multi-resistant clinical isolate; assay type: cell-based, Escherichia coli
Procedure: as §1, §2, §3

[5] = test system: E. coli 50739822; test: MIC, multi-resistant clinical isolate; assay type: cell-based, Escherichia coli
Procedure: as §1, §2, §3

[6] = test system: E. coli 50639799; test: MIC, multi-resistant clinical isolate; assay type: cell-based, Escherichia coli
Procedure: as §1, §2, §3

[7] = test system: P. aeruginosa 50692520; test: MIC, multi-resistant clinical isolate; assay type: cell-based, Pseudomonas aeruginosa
Procedure: as §1, §2, §3

[8] = test system: P. aeruginosa K44-24; test: MIC, multi-resistant clinical isolate; assay type: cell-based, Pseudomonas aeruginosa
Procedure: as §1, §2, §3

[9] = test system: P. aeruginosa K34-73; test: MIC, multi-resistant clinical isolate; assay type: cell-based, Pseudomonas aeruginosa; conditions: P. aeruginosa K34-73
Procedure: as §1, §2, §3

[10] = test system: Staphylococcus aureus ATCC 9144; test: MIC assay, antibiotic susceptible reference strain; assay type: cell-based; conditions: Staphylococcus aureus, ATCC9144, read-out: Antimicrobial activity (MIC) S. a
Outline: (§4)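 Broth microdilution followed CLSI M07-A9 with modifications: inoculum ~2.5-3×10^4 cells/mL in Mueller-Hinton broth, mixed 1:1 with test derivative, incubated 48 h at 35 °C. MIC was the lowest concentration giving no growth by OD600, tested in three parallels, with oxytetracycline as reference antibiotic.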

[11] = test system: Corynebacterium glutamicum ATCC 13032; test: MIC assay, antibiotic susceptible reference strain; assay type: cell-based; conditions: Corynebacterium glutamicum, ATCC13032, read-out: Antimicrobial activity (MIC) C. g
Outline: as §4

[12] = test system: Pseudomonas aeruginosa PA01, DSM 19880 (ATCC 15692); test: MIC assay, antibiotic susceptible reference strain; assay type: cell-based; conditions: Pseudomonas aeruginosa, read-out: Antimicrobial activity (MIC) P. a
Outline: as §4

[13] = test system: Escherichia coli ATCC 25922; test: MIC assay, antibiotic susceptible reference strain; assay type: cell-based; conditions: Escherichia coli, ATCC25922, read-out: Antimicrobial activity (MIC) E. c
Outline: as §4

[14] = test system: panel of 30 multi-resistant clinical isolates of Gram-positive and Gram-negative bacteria; test: MIC screening, ranges over the panel of clinical isolates; assay type: cell-based; conditions: read-out: MIC values against all the 30 multi-resistant clinical isolates
Procedure: as §1, §2, §3

[15] = test system: E. faecium 50758899; test: MIC, multi-resistant clinical isolate; assay type: cell-based, Enterococcus faecium
Procedure: as §1, §2, §3

[16] = test system: E. faecium TUH50-22; test: MIC, multi-resistant clinical isolate; assay type: cell-based, Enterococcus faecium
Procedure: as §1, §2, §3

[17] = test system: E. faecium K36-18; test: MIC, multi-resistant clinical isolate; assay type: cell-based, Enterococcus faecium
Procedure: as §1, §2, §3

[18] = test system: E. faecium 50673722; test: MIC, multi-resistant clinical isolate; assay type: cell-based, Enterococcus faecium
Procedure: as §1, §2, §3

[19] = test system: E. faecium 50901530; test: MIC, multi-resistant clinical isolate; assay type: cell-based, Enterococcus faecium
Procedure: as §1, §2, §3

[20] = test system: S. aureus N315; test: MIC, multi-resistant clinical isolate; assay type: cell-based, Staphylococcus aureus
Procedure: as §1, §2, §3

[21] = test system: S. aureus IHT 99040; test: MIC, multi-resistant clinical isolate; assay type: cell-based, Staphylococcus aureus
Procedure: as §1, §2, §3

[22] = test system: S. aureus NCTC 10442; test: MIC, multi-resistant clinical isolate; assay type: cell-based, Staphylococcus aureus
Procedure: as §1, §2, §3

[23] = test system: S. aureus strain WIS; test: MIC, multi-resistant clinical isolate; assay type: cell-based, Staphylococcus aureus
Procedure: as §1, §2, §3

[24] = test system: S. aureus strain 85/2082; test: MIC, multi-resistant clinical isolate; assay type: cell-based, Staphylococcus aureus
Procedure: as §1, §2, §3

[25] = Escherichia coli, read-out: Antimicrobial activity (MIC)
[26] = Enterococcus faecium, read-out: Antimicrobial activity (MIC)

N=C(N)NCCCCN1C(=O)N(CCCCNC(=N)N)C(=O)C(Cc2ccc(F)c3ccccc23)(Cc2ccc(F)c3ccccc23)C1=O [8(v), 1,1′-(4,4′-(5,5-bis((4-fluoronaphthalen-1-yl)methyl)-2,4,6-trioxodihydropyrimidine-1,3(2H,4H)-diyl)bis(butane-4,1-diyl))diguanidine]
IC50 [1]: 1 µg/mL (≈ 1.49 µM) | MIC [2, 25]: 8 µg/mL (≈ 11.9 µM) | selectivity index (EC50/MIC) ([2]; RBC EC50 / MIC): (11) | MIC [3, 25]: 4 µg/mL (≈ 5.96 µM) | selectivity index (EC50/MIC) ([3]; RBC EC50 / MIC): (22) | MIC [4, 25]: 4 µg/mL (≈ 5.96 µM) | selectivity index (EC50/MIC) ([4]; RBC EC50 / MIC): (22) | MIC [5, 25]: 8 µg/mL (≈ 11.9 µM) | selectivity index (EC50/MIC) ([5]; RBC EC50 / MIC): (11) | MIC [6, 25]: 4 µg/mL (≈ 5.96 µM) | selectivity index (EC50/MIC) ([6]; RBC EC50 / MIC): (22) | MIC ([7]; Pseudomonas aeruginosa, read-out: Antimicrobial activity (MIC)): 16 µg/mL (≈ 23.9 µM) | selectivity index (EC50/MIC) ([7]; RBC EC50 / MIC): (6) | MIC ([8]; Pseudomonas aeruginosa, K4424, read-out: Antimicrobial activity (MIC)): 16 µg/mL (≈ 23.9 µM) | selectivity index (EC50/MIC) ([8]; RBC EC50 / MIC): (6) | MIC ([9]; Pseudomonas aeruginosa, K3473, read-out: Antimicrobial activity (MIC)): 8 µg/mL (≈ 11.9 µM) | selectivity index (EC50/MIC) ([9]; RBC EC50 / MIC): (11) | MIC [10]: 1 µg/mL (≈ 1.49 µM) | MIC [11]: 0.25 µg/mL (≈ 0.373 µM) | MIC [12]: 4 µg/mL (≈ 5.96 µM) | MIC [13]: 1 µg/mL (≈ 1.49 µM) | MIC [14]: 2 to 16 µg/mL (≈ 2.98 to 23.9 µM) | MIC [15, 26]: 4 µg/mL (≈ 5.96 µM) | selectivity index (EC50/MIC) ([15]; RBC EC50 / MIC): (22) | MIC ([16]; Enterococcus faecium, TUH5022, read-out: Antimicrobial activity (MIC)): 4 µg/mL (≈ 5.96 µM) | selectivity index (EC50/MIC) ([16]; RBC EC50 / MIC): (22) | MIC ([17]; Enterococcus faecium, K3618, read-out: Antimicrobial activity (MIC)): 4 µg/mL (≈ 5.96 µM) | selectivity index (EC50/MIC) ([17]; RBC EC50 / MIC, E. faecium K36-18): (22) | MIC [18, 26]: 4 µg/mL (≈ 5.96 µM) | selectivity index (EC50/MIC) ([18]; RBC EC50 / MIC): (22) | MIC [19, 26]: 4 µg/mL (≈ 5.96 µM) | selectivity index (EC50/MIC) ([19]; RBC EC50 / MIC): (22) | selectivity index (EC50/MIC) ([20]; RBC EC50 / MIC, S. aureus N315): (44) | MIC ([20]; Staphylococcus aureus, N315, read-out: Antimicrobial activity (MIC)): 2 µg/mL (≈ 2.98 µM) | selectivity index (EC50/MIC) ([21]; RBC EC50 / MIC): (44) | MIC ([21]; Staphylococcus aureus, IHT99040, read-out: Antimicrobial activity (MIC)): 2 µg/mL (≈ 2.98 µM) | selectivity index (EC50/MIC) ([22]; RBC EC50 / MIC, S. aureus NCTC 10442): (44) | MIC ([22]; Staphylococcus aureus, NCTC10442, read-out: Antimicrobial activity (MIC)): 2 µg/mL (≈ 2.98 µM) | selectivity index (EC50/MIC) ([23]; RBC EC50 / MIC, S. aureus strain WIS): (44) | MIC ([23]; Staphylococcus aureus, read-out: Antimicrobial activity (MIC)): 2 µg/mL (≈ 2.98 µM) | selectivity index (EC50/MIC) ([24]; RBC EC50 / MIC, S. aureus strain 85/2082): (44) | MIC ([24]; Staphylococcus aureus, 85/2082, read-out: Antimicrobial activity (MIC)): 2 µg/mL (≈ 2.98 µM)
